Assay: Acidolysis (rate of scission) of acylated NMeAib amides with 2% TFA in acetonitrile
Format: physicochemical
Settings: for t½ of protecting group: mild acidic conditions (2% TFA in acetonitrile)
Text: In accordance with the present invention, it has been discovered that the rate of reaction can be altered simply by modifying X. Thus, for electron-donating X groups the rate of scission (the sensitivity to acidic conditions) increases. The opposite effect holds true for electron-withdrawing X groups. Four p-substituted benzoyl-N—MeAib—Phe—OMe (7a-d) compounds were subjected to acidic conditions (2% trifluoroacetic acid (TFA) in acetonitrile) and the rate of scission measured for each protecting group.
The equation representing the line in FIG. 1 is particularly useful because it allows one to predict the rate of scission for any m-substituted or p-substituted X—C6H4C(O)—NMeAib amide where a for the parent acid is known. […]

[1] = acidolysis with 2% TFA in acetonitrile

Row | Half-life [1] [h] | Half-life (2% TFA in acetonitrile) | half life predicted from the linear free energy equation of FIG. 1 (predicted from σ of the parent acid, X = dimethylamino) | t½ of protecting group [h] | Compound | k [1] [s⁻¹]
1 | 5 | – | – | – | COC(=O)[C@H](Cc1ccccc1)NC(=O)C(C)(C)N(C)C(=O)c1ccc(C(F)(F)F)cc1 [CF3, p-CF3—C6H4C(O)—NMeAib—Phe—OMe] | 3.7e-05 ± 2e-06
2 | 12 | about 12 hours | – | – | COC(=O)[C@H](Cc1ccccc1)NC(=O)C(C)(C)N(C)C(=O)c1ccc([N+](=O)[O-])cc1 [NO2, p-NO2—C6H4—C(O)—NMeAib—Phe—OMe] | 1.5e-05 ± 1e-06
3 | 2 | about 2 hours | – | – | COC(=O)[C@H](Cc1ccccc1)NC(=O)C(C)(C)N(C)C(=O)c1ccc(Cl)cc1 [Cl, p-Cl—C6H4C(O)—NMeAib—Phe—OMe] | 8.3e-05 ± 3e-06
4 | – | – | about 29 seconds | – | p-N(CH3)2C6H4C(O)—NMeAib | –
5 | – | – | – | 0.333 | COc1ccc(C(=O)N(C)C(C)(C)C(=O)O)cc1 [p-methoxy-benzoyl-NMeAib] | –
6 | 8 | – | – | – | COC(=O)[C@H](Cc1ccccc1)NC(=O)C(C)(C)N(C)C(=O)c1ccc(C#N)cc1 [CN, p-CN—C6H4C(O)—NMeAib—Phe—OMe] | 2.3e-05 ± 1e-06
7 | – | – | – | 12 | p-nitro-benzoyl-NMeAib | –

Source: patent US6417397B1, “N-substituted alkylamino acids for use as amino-protecting groups” (The Regents of the University of California, San Diego, priority 1999, dated 2002)
